Results taken from publication PMC5218480 (PLoS ONE, 2017).

Tested on: MV-4-11 cells
Assay: Gene expression microarray analysis (Affymetrix PrimeView) and GSEA
Type: cell-based, human
Set-up: RFU PODN (11730768_x_at) / Fold change /veh PODN (11730768_x_at) / RFU LINC00158 (11744669_a_at) / Fold change /veh LINC00158 (11744669_a_at) / RFU DUSP10 (11751237_a_at) / Fold change /veh DUSP10 (11751237_a_at) / RFU ID3 (11757404_x_at) / Fold change /veh ID3 (11757404_x_at) / RFU PLEKHG5 (11737974_s_at) / Fold change /veh PLEKHG5 (11737974_s_at) / RFU LRRC4B (11730491_at) / Fold change /veh LRRC4B (11730491_at) / RFU GIMAP4 (11747438_a_at) / Fold change /veh GIMAP4 (11747438_a_at) / RFU KRT8 (11758183_x_at) / Fold change /veh KRT8 (11758183_x_at) / RFU CNN1 (11734310_a_at) / Fold change /veh CNN1 (11734310_a_at) / RFU VPS37D (11726825_at) / Fold change /veh VPS37D (11726825_at) / RFU C10orf10 (11716522_x_at) / Fold change /veh C10orf10 (11716522_x_at) / RFU KIR2DL2 /// KIR2DL4 /// KIR2DL5A /// KIR2DL5B /// KIR2DS1 /// KIR2DS2 /// KIR2DS3 /// KIR2DS4 /// KIR3DL3 /// KIR3DL3 /// KIR3DS1 (11738374_at) / Fold change /veh KIR2DL2 /// KIR2DL4 /// KIR2DL5A /// KIR2DL5B /// KIR2DS1 /// KIR2DS2 /// KIR2DS3 /// KIR2DS4 /// KIR3DL3 /// KIR3DL3 /// KIR3DS1 (11738374_at) / RFU C1QL1 (11718748_at) / Fold change /veh C1QL1 (11718748_at) / RFU TMPRSS4 (11747572_a_at) / Fold change /veh TMPRSS4 (11747572_a_at) / RFU HAMP (11756126_x_at) / Fold change /veh HAMP (11756126_x_at) / RFU RNFT2 (11725882_a_at) / Fold change /veh RNFT2 (11725882_a_at) / RFU NR4A2 (11747474_a_at) / Fold change /veh NR4A2 (11747474_a_at) / RFU ABCC12 (11746883_a_at) / Fold change /veh ABCC12 (11746883_a_at) / RFU TMEM136 (11760407_x_at) / Fold change /veh TMEM136 (11760407_x_at) / RFU CLDN22 /// WWC2 (11732394_at) / Fold change /veh CLDN22 /// WWC2 (11732394_at) / RFU HLA-DPB1 (11760878_x_at) / Fold change /veh HLA-DPB1 (11760878_x_at) / RFU SPINT1 (11716480_a_at) / Fold change /veh SPINT1 (11716480_a_at) / RFU GAP43 (11754022_s_at) / Fold change /veh GAP43 (11754022_s_at) / RFU A4GNT (11735810_at) / Fold change /veh A4GNT (11735810_at) / RFU PRB3 (11715151_x_at) / Fold change /veh PRB3 (11715151_x_at) / RFU TUBB4B (11761932_at) / Fold change /veh TUBB4B (11761932_at) / RFU CAPN14 (11732068_a_at) / Fold change /veh CAPN14 (11732068_a_at) / RFU TMCC2 (11721928_a_at) / Fold change /veh TMCC2 (11721928_a_at) / RFU IRGQ (11745062_a_at) / Fold change /veh IRGQ (11745062_a_at) / RFU FAM174B (11720279_a_at) / Fold change /veh FAM174B (11720279_a_at) / RFU TMPRSS4 (11748680_a_at) / Fold change /veh TMPRSS4 (11748680_a_at) / RFU FAM212B (11763350_a_at) / Fold change /veh FAM212B (11763350_a_at) / RFU PLEKHG5 (11743358_a_at) / Fold change /veh PLEKHG5 (11743358_a_at) / RFU ZSCAN30 (11745921_a_at) / Fold change /veh ZSCAN30 (11745921_a_at) / RFU CMKLR1 (11741424_a_at) / Fold change /veh CMKLR1 (11741424_a_at) / RFU LOC101060620 /// MAPK8IP1 (11723275_at) / Fold change /veh LOC101060620 /// MAPK8IP1 (11723275_at) / RFU SPTSSB (11747773_x_at) / Fold change /veh SPTSSB (11747773_x_at) / RFU PRSS12 (11739890_at) / Fold change /veh PRSS12 (11739890_at) / RFU BIN1 (11741810_x_at) / Fold change /veh BIN1 (11741810_x_at) / RFU WNT11 (11732464_a_at) / Fold change /veh WNT11 (11732464_a_at) / RFU C10orf10 (11716521_a_at) / Fold change /veh C10orf10 (11716521_a_at) / RFU C5orf56 (11738089_at) / Fold change /veh C5orf56 (11738089_at) / RFU CYB561 (11721691_x_at) / Fold change /veh CYB561 (11721691_x_at) / RFU ANKRD19P (11752326_a_at) / Fold change /veh ANKRD19P (11752326_a_at) / RFU OR2T12 /// OR2T33 /// OR2T8 (11738714_s_at) / Fold change /veh OR2T12 /// OR2T33 /// OR2T8 (11738714_s_at) / RFU VCAN (11748164_a_at) / Fold change /veh VCAN (11748164_a_at) / RFU JSRP1 (11732532_at) / Fold change /veh JSRP1 (11732532_at) / RFU KRTAP10-11 (11738290_x_at) / Fold change /veh KRTAP10-11 (11738290_x_at) / RFU MYO3A (11730013_a_at) / Fold change /veh MYO3A (11730013_a_at) / RFU EBF3 (11725865_a_at) / Fold change /veh EBF3 (11725865_a_at) / RFU CAMK2N1 (11719241_x_at) / Fold change /veh CAMK2N1 (11719241_x_at) / RFU C5orf56 (11738088_a_at) / Fold change /veh C5orf56 (11738088_a_at) / RFU OLFML3 (11715873_a_at) / Fold change /veh OLFML3 (11715873_a_at) / RFU LOC100653217 /// NTM (11731650_a_at) / Fold change /veh LOC100653217 /// NTM (11731650_a_at) / RFU MAPK11 (11762145_a_at) / Fold change /veh MAPK11 (11762145_a_at) / RFU FIZ1 (11724087_x_at) / Fold change /veh FIZ1 (11724087_x_at) / RFU OASL (11726364_x_at) / Fold change /veh OASL (11726364_x_at) / RFU SOX15 (11748057_x_at) / Fold change /veh SOX15 (11748057_x_at) / RFU CD79A (11719716_a_at) / Fold change /veh CD79A (11719716_a_at) / RFU HIST1H1D (11736915_at) / Fold change /veh HIST1H1D (11736915_at) / RFU CASKIN2 (11723855_a_at) / Fold change /veh CASKIN2 (11723855_a_at) / RFU LOC730098 (11760151_x_at) / Fold change /veh LOC730098 (11760151_x_at) / RFU OR4N2 (11742367_at) / Fold change /veh OR4N2 (11742367_at) / RFU PRRT2 (11749266_a_at) / Fold change /veh PRRT2 (11749266_a_at) / RFU SNX32 (11753110_a_at) / Fold change /veh SNX32 (11753110_a_at) / RFU CDHR5 (11726645_a_at) / Fold change /veh CDHR5 (11726645_a_at) / RFU RCAN1 (11760418_a_at) / Fold change /veh RCAN1 (11760418_a_at) / RFU FAM167A (11723789_a_at) / Fold change /veh FAM167A (11723789_a_at) / RFU FAM26E (11764081_at) / Fold change /veh FAM26E (11764081_at) / RFU ISYNA1 (11749810_s_at) / Fold change /veh ISYNA1 (11749810_s_at) / RFU ACY1 (11761880_at) / Fold change /veh ACY1 (11761880_at) / RFU 11764098_at / Fold change /veh 11764098_at / RFU SAMD14 (11745864_x_at) / Fold change /veh SAMD14 (11745864_x_at) / RFU NPB (11741838_a_at) / Fold change /veh NPB (11741838_a_at) / RFU TMPRSS6 (11731388_a_at) / Fold change /veh TMPRSS6 (11731388_a_at) / RFU KRTAP10-2 (11738614_at) / Fold change /veh KRTAP10-2 (11738614_at) / RFU ARHGAP8 /// PRR5-ARHGAP8 (11727945_x_at) / Fold change /veh ARHGAP8 /// PRR5-ARHGAP8 (11727945_x_at) / RFU KRTAP5-7 /// NADSYN1 (11734609_at) / Fold change /veh KRTAP5-7 /// NADSYN1 (11734609_at) / RFU RASL12 (11751679_a_at) / Fold change /veh RASL12 (11751679_a_at) / RFU CDKN2B (11736163_a_at) / Fold change /veh CDKN2B (11736163_a_at) / RFU PRF1 (11729649_at) / Fold change /veh PRF1 (11729649_at) / RFU, ZNF638 /// ZNF638-IT1 / Fold change vs veh, ZNF638 /// ZNF638-IT1 / RFU, PANK3 / Fold change vs veh, PANK3 / RFU, SH3YL1 / Fold change vs veh, SH3YL1 / RFU, ZEB2 / Fold change vs veh, ZEB2 / RFU, NRIP1 / Fold change vs veh, NRIP1 / RFU, PTTG1IP / Fold change vs veh, PTTG1IP / RFU, CAPN2 / Fold change vs veh, CAPN2 / RFU, MED14 / Fold change vs veh, MED14 / RFU, SNORA58 / Fold change vs veh, SNORA58 / RFU, C1orf63 / Fold change vs veh, C1orf63 / RFU, LRRFIP1 / Fold change vs veh, LRRFIP1 / RFU, NDUFAF7 / Fold change vs veh, NDUFAF7 / RFU, SLC12A2 / Fold change vs veh, SLC12A2 / RFU, IBTK / Fold change vs veh, IBTK / RFU, ESF1 / Fold change vs veh, ESF1 / Fold change vs veh, TMEM50B / RFU, TAOK1 / Fold change vs veh, TAOK1 / RFU, ACBD3 / Fold change vs veh, ACBD3 / RFU, TMA16 / Fold change vs veh, TMA16 / RFU, RWDD3 / Fold change vs veh, RWDD3 / RFU, BCAT1 / Fold change vs veh, BCAT1 / RFU, EDEM3 / Fold change vs veh, EDEM3 / RFU, TMEM33 / Fold change vs veh, TMEM33 / RFU, WDR75 / Fold change vs veh, WDR75 / RFU, AHCTF1 / Fold change vs veh, AHCTF1 / RFU, TFRC / Fold change vs veh, TFRC / RFU, ZDHHC17 / Fold change vs veh, ZDHHC17 / RFU, NOM1 / Fold change vs veh, NOM1 / RFU, ARL8B / Fold change vs veh, ARL8B / RFU, ZBTB11 / Fold change vs veh, ZBTB11 / RFU, TAMM41 / Fold change vs veh, TAMM41 / RFU, KIAA1704 /// LOC100996395 / Fold change vs veh, KIAA1704 /// LOC100996395 / RFU, ING1 / Fold change vs veh, ING1 / RFU, TRMT61B / Fold change vs veh, TRMT61B / RFU, FUBP3 / Fold change vs veh, FUBP3 / RFU, TP53 / Fold change vs veh, TP53 / RFU, TNKS2 / Fold change vs veh, TNKS2 / RFU, ZFP14 / Fold change vs veh, ZFP14 / RFU, ACTR2 / Fold change vs veh, ACTR2 / RFU, PPP3R1 / Fold change vs veh, PPP3R1 / RFU, PIK3R1 / Fold change vs veh, PIK3R1 / RFU, HNRNPA1 / Fold change vs veh, HNRNPA1 / RFU, RNF170 / Fold change vs veh, RNF170 / RFU, ZNF28 / Fold change vs veh, ZNF28 / RFU, RNGTT / Fold change vs veh, RNGTT / RFU, OGT / Fold change vs veh, OGT / RFU, BRD1 / Fold change vs veh, BRD1 / RFU, MARS / Fold change vs veh, MARS / RFU, ZNF655 / Fold change vs veh, ZNF655 / RFU, FAHD1 / Fold change vs veh, FAHD1 / RFU, BDP1 / Fold change vs veh, BDP1 / RFU, LRRCC1 / Fold change vs veh, LRRCC1 / RFU, ARID1A / Fold change vs veh, ARID1A / RFU, ZNF146 / Fold change vs veh, ZNF146 / RFU, ZNF330 / Fold change vs veh, ZNF330 / RFU, GPN3 / Fold change vs veh, GPN3 / RFU, C9orf123 / Fold change vs veh, C9orf123 / RFU, N4BP2L2 / Fold change vs veh, N4BP2L2 / RFU, ARFIP1 / Fold change vs veh, ARFIP1 / RFU, FAM179B / Fold change vs veh, FAM179B / RFU, BCL10 / Fold change vs veh, BCL10 / RFU, UHRF1BP1L / Fold change vs veh, UHRF1BP1L / RFU, BET1 / Fold change vs veh, BET1 / RFU, CNOT2 / Fold change vs veh, CNOT2 / RFU, ZNF268 / Fold change vs veh, ZNF268 / Fold change vs veh, ZNF507 / RFU, DGCR2 / Fold change vs veh, DGCR2 / RFU, WDSUB1 / Fold change vs veh, WDSUB1 / Fold change vs veh, HSP90B1 /// MIR3652 / RFU, ADSS / Fold change vs veh, ADSS / RFU, GK / Fold change vs veh, GK / RFU, ZNF148 / Fold change vs veh, ZNF148 / RFU, TAF9 / Fold change vs veh, TAF9 / RFU, SLC1A5 / Fold change vs veh, SLC1A5 / RFU, SLMO2 / Fold change vs veh, SLMO2 / RFU, ABCC4 / Fold change vs veh, ABCC4 / RFU, LOC101060439 /// RAP1B / Fold change vs veh, LOC101060439 /// RAP1B / RFU, RFX7 / Fold change vs veh, RFX7 / RFU, GTPBP10 / Fold change vs veh, GTPBP10 / RFU, CNEP1R1 / Fold change vs veh, CNEP1R1 / RFU, BIVM-ERCC5 /// ERCC5 / Fold change vs veh, BIVM-ERCC5 /// ERCC5 / RFU, ILF3 / Fold change vs veh, ILF3 / RFU 11762660_at / Fold change /veh 11762660_at / RFU VCAN (11757783_s_at) / Fold change /veh VCAN (11757783_s_at) / RFU DDX43 (11728927_at) / Fold change /veh DDX43 (11728927_at) / RFU KRT8 (11758188_x_at) / Fold change /veh KRT8 (11758188_x_at) / RFU NKD1 (11759106_at) / Fold change /veh NKD1 (11759106_at) / RFU SRD5A1 (11742802_a_at) / Fold change /veh SRD5A1 (11742802_a_at) / RFU TPSAB1 /// TPSB2 (11721975_s_at) / Fold change /veh TPSAB1 /// TPSB2 (11721975_s_at) / RFU GSTM3 (11746129_a_at) / Fold change /veh GSTM3 (11746129_a_at) / RFU IL23R (11737362_x_at) / Fold change /veh IL23R (11737362_x_at) / RFU TMEM51 (11727254_a_at) / Fold change /veh TMEM51 (11727254_a_at) / RFU PIWIL2 (11732686_x_at) / Fold change /veh PIWIL2 (11732686_x_at) / RFU ORM1 (11744905_x_at) / Fold change /veh ORM1 (11744905_x_at) / RFU CCDC152 (11743942_at) / Fold change /veh CCDC152 (11743942_at) / RFU ECM1 (11717891_a_at) / Fold change /veh ECM1 (11717891_a_at) / RFU IL23R (11748794_a_at) / Fold change /veh IL23R (11748794_a_at) / RFU TNFAIP8L3 (11732012_x_at) / Fold change /veh TNFAIP8L3 (11732012_x_at) / RFU MBOAT4 (11741988_at) / Fold change /veh MBOAT4 (11741988_at) / RFU 11764193_at / Fold change /veh 11764193_at / RFU TMEM53 (11763286_at) / Fold change /veh TMEM53 (11763286_at) / RFU MAGEB2 (11727129_at) / Fold change /veh MAGEB2 (11727129_at) / RFU TMEM200A (11744735_a_at) / Fold change /veh TMEM200A (11744735_a_at) / RFU CCDC152 (11751479_a_at) / Fold change /veh CCDC152 (11751479_a_at) / RFU FAM211A (11726209_a_at) / Fold change /veh FAM211A (11726209_a_at) / RFU RGS16 (11746705_a_at) / Fold change /veh RGS16 (11746705_a_at) / RFU VCAN (11755009_s_at) / Fold change /veh VCAN (11755009_s_at) / RFU RHOB (11743442_s_at) / Fold change /veh RHOB (11743442_s_at) / RFU RGS16 (11720943_a_at) / Fold change /veh RGS16 (11720943_a_at) / RFU RGS16 (11720944_at) / Fold change /veh RGS16 (11720944_at) / RFU, VPS4B / Fold change vs veh, VPS4B / RFU, CREB1 / Fold change vs veh, CREB1 / RFU, DNAJC13 / Fold change vs veh, DNAJC13 / RFU, GNAQ / Fold change vs veh, GNAQ / RFU, CDK5R1 / Fold change vs veh, CDK5R1 / RFU, ZRANB3 / Fold change vs veh, ZRANB3 / RFU, CUL4A / Fold change vs veh, CUL4A / RFU, CCNY / Fold change vs veh, CCNY / RFU, UFL1 / Fold change vs veh, UFL1 / RFU, COG3 / Fold change vs veh, COG3 / RFU, DIAPH2 / Fold change vs veh, DIAPH2 / RFU, SKA2 / Fold change vs veh, SKA2 / RFU, AFF3 / Fold change vs veh, AFF3 / RFU, LMF1 / Fold change vs veh, LMF1 / RFU, IPO11 / Fold change vs veh, IPO11 / RFU, DFFB / Fold change vs veh, DFFB / RFU, FOXP1 / Fold change vs veh, FOXP1 / RFU, CARD8 / Fold change vs veh, CARD8 / RFU, STRN3 / Fold change vs veh, STRN3 / RFU, ADK / Fold change vs veh, ADK / RFU, RASSF2 / Fold change vs veh, RASSF2 / RFU, WIPF1 / Fold change vs veh, WIPF1 / RFU, LARP1B / Fold change vs veh, LARP1B / RFU, RASA1 / Fold change vs veh, RASA1 / RFU, RB1 / Fold change vs veh, RB1 / RFU, PPFIA1 / Fold change vs veh, PPFIA1 / RFU, MAT2A / Fold change vs veh, MAT2A / RFU, CCT5 / Fold change vs veh, CCT5 / RFU, WDR92 / Fold change vs veh, WDR92 / RFU, CUX1 / Fold change vs veh, CUX1 / RFU, TTC7A / Fold change vs veh, TTC7A / RFU, TMEM135 / Fold change vs veh, TMEM135 / RFU, DEPTOR / Fold change vs veh, DEPTOR / RFU, CPM / Fold change vs veh, CPM / RFU, DNAJB6 / Fold change vs veh, DNAJB6 / RFU, CACNA2D3 / Fold change vs veh, CACNA2D3 / RFU, DTX4 / Fold change vs veh, DTX4 / RFU, TFCP2 / Fold change vs veh, TFCP2 / RFU, GMCL1 /// GMCL1P1 / Fold change vs veh, GMCL1 /// GMCL1P1 / RFU, AEBP2 / Fold change vs veh, AEBP2 / RFU, SNHG1 /// SNORD22 /// SNORD25 /// SNORD26 /// SNORD27 /// SNORD28 /// SNORD29 /// SNORD31 / Fold change vs veh, SNHG1 /// SNORD22 /// SNORD25 /// SNORD26 /// SNORD27 /// SNORD28 /// SNORD29 /// SNORD31 / Fold change (Aza/veh), C12orf56 (ProbeSet 11735607_a_at) / Fold change (ACY-1035/veh), C12orf56 (ProbeSet 11735607_a_at) / Fold change (Aza/veh), FGFR1OP (ProbeSet 11751329_s_at) / Fold change (ACY-1035/veh), FGFR1OP (ProbeSet 11751329_s_at) / Fold change (Aza/veh), VPS36 (ProbeSet 11739960_a_at) / Fold change (ACY-1035/veh), VPS36 (ProbeSet 11739960_a_at) / RFU SYPL1 (11715823_x_at) / Fold change /veh SYPL1 (11715823_x_at) / RFU IGFBP7 (11715501_s_at) / Fold change /veh IGFBP7 (11715501_s_at) / RFU REEP3 (11722064_at) / Fold change /veh REEP3 (11722064_at) / RFU IGLL1 (11728026_x_at) / Fold change /veh IGLL1 (11728026_x_at): dose or concentration left out as unconfirmed
Conditions: MV-4-11 cells, 48 hours

SMILES: Nc1ncn([C@@H]2O[C@H](CO)[C@@H](O)[C@H]2O)c(=O)n1 [azacitidine]
- RFU HIST1H1D (11736915_at): 16.89 RFU
